Drawing on patent publication US6677368B2, “4-aryl substituted indolinones” (Sugen, Inc., priority 2000, dated 2004), this text covers IC50 for 14 compounds.

Format in all cases: biochemical
Test [1] deals with T1, MET (Homo sapiens, UniProt P08581).
T1 construct: Purified GST fusion protein containing the Met kinase domain, SUGEN, Inc
The test is described as follows: MET transphosphorylation assay. The settings on record: GST fusion protein containing the Met kinase domain, poly(glu-tyr) substrate. As for the experimental part:
MET TRANSPHOSPHORYLATION ASSAY
This assay is used to measure phosphotyrosine levels on a poly(glutamic acid:tyrosine, 4:1) substrate as a means for identifying agonists/antagonists of met transphosphorylation of the substrate.
1. Corning 96-well ELISA plates, Corning Catalog #25805-96.
2. Poly(glu-tyr), 4:1, Sigma, Cat. No; P 0275.
5. Blocking Buffer: Dissolve 25 g Bovine Serum Albumin, Sigma Cat. No A-7888, in 500 ml PBS, filter through a […] filter.
6. Purified GST fusion protein containing the Met kinase domain, SUGEN, Inc.
8. 10% aqueous (MilliQue H2O) DMSO.
9. 10 mM aqueous (dH2O) Adenosine-5′-triphosphate, Sigma Cat. No. A-5394.
10. 2×Kinase Dilution Buffer: for 100 ml, mix 10 mL 1M HEPES at pH 7.5 with 0.4 mL 5% BSA/PBS, 0.2 mL 0.1 M sodium orthovanadate and 1 mL 5M sodium chloride in 88.4 mL dH2O.
11. 4×ATP Reaction Mixture: for 10 mL, mix 0.4 mL 1 M manganese chloride and 0.02 mL 0.1 M ATP in 9.56 mL dH2O.
12. 4×Negative Controls Mixture: for 10 mL, mix 0.4 mL 1 M manganese chloride in 9.6 mL dH2O.
13. NUNC 96-well V bottom polypropylene plates, Applied Scientific Catalog #S-72092
15. Antibody Dilution Buffer: for 100 mL, mix 10 mL 5% BSA/PBS, 0.5 mL 5% Carnation® Instant Milk in PBS and 0.1 mL 0.1 M sodium orthovanadate in 88.4 mL TBST.
16. Rabbit polyclonal antophosphotyrosine antibody, SUGEN, Inc.
17. Goat anti-rabbit horseradish peroxidase conjugated antibody, Biosource, Inc.
18. ABTS Solution: for 1 L, mix 19.21 g citric acid, 35.49 g Na2HPO4 and 500 mg ABTS with sufficient dH2O to make 1 L.
19. ABTS/H2O2: mix 15 mL ABST solution with 2μL H2O2 five minutes before use.
1. Coat ELISA plates with 2 μg Poly(Glu-Tyr) in 100 μL PBS, hold overnight at 4° C.
2. Block plate with 150 μL of 5% BSA/PBS for 60 min.
3. Wash plate twice with PBS then once with 50 mM Hepes buffer pH 7.4.
4. Add 50 μl of the diluted kinase to all wells. (Purified kinase is diluted with Kinase Dilution Buffer. Final concentration should be 10 ng/well.)
5. Add 25 μL of the test compound (in 4% DMSO) or DMSO alone (4% in dH2O) for controls to plate.
6. Incubate the kinase/compound mixture for 15 minutes.
7. Add 25 μL of 40 mM MnCl2 to the negative control wells.
8. Add 25 μL ATP/MnCl2 mixture to the all other wells (except the negative controls). Incubate for 5 min.
9. Add 25 μL 500 mM EDTA to stop reaction.
10. Wash plate 3× with TBST.
11. Add 100 μL rabbit polyclonal anti-Ptyr diluted 1:10,000 in Antibody Dilution Buffer to each well. Incubate, with shaking, at room temperature for one hour.
12. Wash plate 3× with TBST.
13. Dilute Biosource HRP conjugated anti-rabbit antibody 1:6,000 in Antibody Dilution buffer. Add 100 μL per well and incubate at room temperature, with shaking, for one hour.
14. Wash plate 1× with PBS.
15. Add 100 μl of ABTS/H2O2 solution to each well.
16. If necessary, stop the development reaction with the addition of 100 μl of 0.2M HCl per well.
17. Read plate on Dynatech MR7000 ELISA reader with the test filter at 410 nM and the reference filter at 630 nM.

Test [2] concerns the target FGFR3 (Homo sapiens, UniProt P22607). The test is described as follows: FGFR3 kinase inhibition.
In test [3] the target is T2, SRC (Homo sapiens, UniProt P12931).
T2 construct: purchased UBI 14-117
T2 sequence (P12931 whole entry): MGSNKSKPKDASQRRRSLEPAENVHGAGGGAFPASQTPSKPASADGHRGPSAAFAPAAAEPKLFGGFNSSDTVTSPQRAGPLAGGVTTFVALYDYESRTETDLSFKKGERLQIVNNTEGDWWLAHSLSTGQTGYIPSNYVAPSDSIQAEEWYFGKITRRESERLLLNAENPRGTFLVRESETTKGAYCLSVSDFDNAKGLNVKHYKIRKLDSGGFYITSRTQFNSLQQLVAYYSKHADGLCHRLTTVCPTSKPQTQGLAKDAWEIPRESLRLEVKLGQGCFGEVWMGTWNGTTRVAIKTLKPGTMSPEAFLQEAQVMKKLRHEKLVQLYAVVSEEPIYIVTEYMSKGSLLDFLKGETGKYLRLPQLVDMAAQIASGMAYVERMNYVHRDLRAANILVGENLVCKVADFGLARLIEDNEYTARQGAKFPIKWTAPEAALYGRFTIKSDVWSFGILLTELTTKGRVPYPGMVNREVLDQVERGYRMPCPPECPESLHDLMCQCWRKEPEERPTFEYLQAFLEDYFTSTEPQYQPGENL
As to the kind of experiment: Src transphosphorylation assay. The settings on record: recombinant human Src, poly(Glu-Tyr) substrate. As to the method: Src Transphosphorylation Assay
This assay is used to screen for inhibitors of the tyrosine kinase Src.
1. Coating buffer: PBS containing sodium azide (0.2 mg/ml).
3. Wash buffer: PBS containing 0.05% v/v Tween 20 (PBS-TWEEN)
5. ATP (40 [M)+MgCl2 (80 mM) in distilled water.
6. MgCl2 (80 mM) in distilled water (for no ATP blanks).
7. Test compounds, 10 mM in DMSO.
8. Assay Buffer: 100 mM HEPES, pH 7.4, containing 2 mM DTT, 0.2 mM sodium orthovanadate and 0.2 mgs/ml BSA.
9. Partially purified recombinant human Src (UBI (14-117)
10. Anti-phosphotyrosine (SUGEN rabbit polyclonal anti-PY).
11. HRP-linked goat anti-rabbit Ig (Biosource International #6430)
12. HRP substrate ABTS or Pierce Peroxidase substrate.
13. Corning ELISA plates.
1. Coat plates with 100 μl of 20 μg/ml poly(Glu-Tyr) (Sigma Cat. No.P0275) containing 0.01% sodium azide. Hold overnight at 4° C.
2. Block with 1% BSA at 100 μl/well for one hour at room temperature.
3. Plate test compounds (10 mM in DMSO) at 2 ul/well on a Costar plate ready for dilution with dH2O and plating to reaction plates.
4. Dilute Src kinase 1:10,000 in Reaction Buffer, for 5 plates prepare 25 ml as follows: 2.5 mls 1M HEPES pH7.4 (stored sterile at 4° C.), 21.85 ml distilled water, 0.1 ml 5% BSA, 0.5 ml 10 mM sodium orthovanadate (stored sterile at 4° C.), 50 μl 1.0M DTT (stored frozen at […]), and 2.5 μl Src Kinase (stored frozen at −80° C.).
5. Add 48 μl of distilled water to the 2 ∥l of each compound in the dilution plate then add 25 μl/well of this to the reaction plate.
6. Add 50 μl of […] to each reaction buffer well and then 25 μl ATP-MgCl2/well (MgCl2 only to no ATP blanks). Incubate at room temperature for 15 minutes on plate shaker. Stop reaction by adding 25 μl of 0.5M EDTA to each well.
7. Wash 4× with PBS-TWEEN.
8. […] Incubate with continuous shaking at room temperature for one hour.
9. Wash plates 4× with PBS-TWEEN.
10. Add 100 μl HPP-linked Ig (1:5,000) in PBS-TWEEN containing 0.5% BSA, 0.025% Non-fat milk powder, 100 μM sodium orthovanadate. Incubate with shaking at room temperature for one hour.
11. Wash plates 4× with PBS-TWEEN and then once with PBS.
12. Develop plate using ABTS or other peroxidase substrate.

Some results are limits rather than exact numbers.

FGFR3, sequence (P22607 23-806, species assumed): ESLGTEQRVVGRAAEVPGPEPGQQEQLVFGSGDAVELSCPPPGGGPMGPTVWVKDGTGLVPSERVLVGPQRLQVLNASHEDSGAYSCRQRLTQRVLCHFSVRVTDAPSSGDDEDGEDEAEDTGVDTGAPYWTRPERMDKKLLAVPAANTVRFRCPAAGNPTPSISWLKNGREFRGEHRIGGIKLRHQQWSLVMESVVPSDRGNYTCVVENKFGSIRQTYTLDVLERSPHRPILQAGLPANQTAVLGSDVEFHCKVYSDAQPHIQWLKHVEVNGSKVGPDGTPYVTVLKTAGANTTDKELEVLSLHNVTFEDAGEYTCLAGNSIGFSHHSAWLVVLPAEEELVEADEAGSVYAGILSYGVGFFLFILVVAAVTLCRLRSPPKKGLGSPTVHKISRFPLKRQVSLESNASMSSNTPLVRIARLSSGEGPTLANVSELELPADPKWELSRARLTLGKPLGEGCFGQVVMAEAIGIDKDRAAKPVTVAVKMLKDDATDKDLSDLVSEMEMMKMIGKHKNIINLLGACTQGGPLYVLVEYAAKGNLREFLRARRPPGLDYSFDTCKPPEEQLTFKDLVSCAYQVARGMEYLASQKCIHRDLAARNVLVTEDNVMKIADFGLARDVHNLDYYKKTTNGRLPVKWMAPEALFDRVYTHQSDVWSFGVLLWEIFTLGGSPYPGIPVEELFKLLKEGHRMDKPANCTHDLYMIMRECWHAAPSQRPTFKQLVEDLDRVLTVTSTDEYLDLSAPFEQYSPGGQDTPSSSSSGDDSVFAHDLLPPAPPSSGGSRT
T1 sequence (P08581 1078-1345 limits assumed): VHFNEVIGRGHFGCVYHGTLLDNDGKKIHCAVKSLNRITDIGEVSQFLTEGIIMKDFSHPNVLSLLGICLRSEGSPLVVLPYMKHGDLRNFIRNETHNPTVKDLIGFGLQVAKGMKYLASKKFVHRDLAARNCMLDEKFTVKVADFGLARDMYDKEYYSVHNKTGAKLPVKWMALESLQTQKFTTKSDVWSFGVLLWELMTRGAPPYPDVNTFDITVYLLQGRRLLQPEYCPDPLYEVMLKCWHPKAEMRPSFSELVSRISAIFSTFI

On to `Cc1[nH]c(/C=C2\C(=O)Nc3cccc(-c4ccc(Br)cc4)c32)c(C)c1C(=O)N1CCN(C)CC1` [Example 53], for which the IC50 in test [1] stood at 0.29 µM; in test [2], 0.68 µM; in test [3] it was 13.5 µM.
As to `CCN(CC)CCNC(=O)c1c(C)[nH]c(/C=C2\C(=O)Nc3cccc(-c4cccc(OC)c4)c32)c1C` [Example 46, 5-[4-(3-Methoxy-phenyl)-2-oxo-1,2-dihydro-indol-3-ylidenemethyl]-2,4-dimethyl-1H-pyrrole-3-carboxylic Acid (2-Diethylamino-ethyl)-amide], the results for the IC50 in test [1], in test [2] and in test [3] were 0.12 µM, 0.009 µM and 0.66 µM, respectively.
Consider `Cc1cc(C(=O)N2CC[C@H](N(C)C)C2)c(/C=C2\C(=O)Nc3cccc(-c4ccc(F)cc4)c32)[nH]1` [Example 10, 3-[3-((S)-3-Dimethylamino-pyrrolidine-1-carbonyl)-5-methyl-1H-pyrrol-2-ylmethylene]-4-(4-fluoro-phenyl)-1,3-dihydro-indol-2-one], for which the values for the IC50 in test [1] and in test [3] were 0.23 µM and 1.82 µM, respectively.
The corresponding values for `Cc1cc(C(=O)NCCN2CCCC2)c(/C=C2\C(=O)Nc3cccc(-c4ccc(F)c(Cl)c4)c32)[nH]1` [Example 119, 2-[4-(3-Chloro-4-fluoro-phenyl)-2-oxo-1,2-dihydro-indol-3-ylidenemethyl]-5-methyl-1H-pyrrole-3-carboxylic Acid (2-Pyrrolidin-1-yl-ethyl)-amide] are 0.059 µM and 8.61 µM.
The corresponding values for `CCN(CC)CCNC(=O)c1c(C)[nH]c(/C=C2\C(=O)Nc3cccc(-c4ccc(OC(F)(F)F)cc4)c32)c1C` [Example 140, 2,4-Dimethyl-5-[2-oxo-4-(4-trifluoromethoxy-phenyl)-1,2-dihydro-indol-3-ylidenemethyl]-1H-pyrrole-3-carboxylic Acid (2-Diethylamino-ethyl)-amide] are 0.68 µM and 4.31 µM.
For `Cc1cc(C(=O)N2C[C@@H](C)N[C@@H](C)C2)c(/C=C2\C(=O)Nc3cccc(-c4cccc(Cl)c4)c32)[nH]1` [Example 35, 4-(3-Chloro-phenyl)-3-[3-((cis)-3,5-dimethyl-piperazine-1-carbonyl)-5-methyl-1H-pyrrol-2-ylmethylene]-1,3-dihydro-indol-2-one], the IC50 stood at 0.34 µM in test [1], 1.99 µM in test [2] and 9.72 µM in test [3].
The corresponding values for `COc1cccc(-c2cccc3c2/C(=C/c2[nH]c(C)c(C(=O)NCCN(C(C)C)C(C)C)c2C)C(=O)N3)c1` [Example 52, 5-[4-(3-Methoxy-phenyl)-2-oxo-1,2-dihydro-indol-3-ylidenemethyl]-2,4-dimethyl-1H-pyrrole-3-carboxylic Acid (2-Diisopropylamino-ethyl)-amide] are 0.092 µM, below 0.0091 µM and 0.54 µM.
With `COc1ccc(-c2cccc3c2/C(=C/c2[nH]c(C)cc2C(=O)NCCN2CCCC2)C(=O)N3)cc1` [Example 41, 2-[4-(4-Methoxy-phenyl)-2-oxo-1,2-dihydro-indol-3-ylidenemethyl]-5-methyl-1H-pyrrole-3-carboxylic Acid (2-Pyrrolidin-1-yl-ethyl)-amide], the values for the 50% inhibitory concentration (IC50) in test [1], in test [2] and in test [3] were 0.32 µM, 0.79 µM and 5.42 µM, respectively.
The corresponding values for `Cc1cc(C(=O)NCCn2ccnn2)c(/C=C2\C(=O)Nc3cccc(-c4cccc(Cl)c4)c32)[nH]1` [Example 34, 2-[4-(3-Chloro-phenyl)-2-oxo-1,2-dihydro-indol-3-ylidenemethyl]-5-methyl-1H-pyrrole-3-carboxylic Acid (2-[1,2,3]Triazol-1-yl-ethyl)-amide] are 0.13 µM, 0.94 µM and 7.26 µM.
For `CCN(CC)CCNC(=O)c1c(C)[nH]c(/C=C2\C(=O)Nc3cccc(-c4ccccc4)c32)c1C` [Example 3, 2,4-Dimethyl-5-(2-oxo-4-phenyl-1,2-dihydro-indol-3-ylidenemethyl)-1H-pyrrole-3-carboxylic Acid (2-Diethylamino-ethyl)-amide], the IC50 came to 0.078 µM in test [1] and 1.02 µM in test [3].
On the same counts, the results for `Cc1[nH]c(/C=C2\C(=O)Nc3cccc(-c4cccc(C(F)(F)F)c4)c32)c(C)c1C(=O)N1CCN(C)CC1` [Example 104, 3-[3,5-Dimethyl-4-(4-methyl-piperazine-1-carbonyl)-H-pyrrol-2-ylmethylene]-4-(3-trifluoromethyl-phenyl)-1,3-dihydro-indol-2-one] are 0.58 µM and 7.09 µM.
For the compound `Cc1[nH]c(/C=C2\C(=O)Nc3cccc(-c4ccc(F)cc4)c32)c(C)c1C(=O)N1CCN(C)CC1` [Example 4, 3-[3,5-Dimethyl-4-(4-methyl-piperazine-1-carbonyl)-1H-pyrrol-2-ylmethylene]-4-(4-fluoro-phenyl)-1,3-dihydro-indol-2-one], the IC50 in test [1] is 0.7 µM; in test [3], above 20 µM.
On the same counts, the results for `Cc1cc(C(=O)NCCn2ccnn2)c(/C=C2\C(=O)Nc3cccc(-c4ccccc4F)c32)[nH]1` [Example 99, 2-[4-(2-Fluoro-phenyl)-2-oxo-1,2-dihydro-indol-3-ylidenemethyl]-5-methyl-1H-pyrrole-3-carboxylic Acid (2-[1,2,3]Triazol-1-yl-ethyl)-amide] are 0.18 µM and above 20 µM.
The corresponding values for `Cc1[nH]c(/C=C2\C(=O)Nc3cccc(-c4ccccc4F)c32)c(C)c1C(=O)N1CCN(C)CC1` [Example 93, 3-[3,5-Dimethyl-4-(4-methyl-piperazine-1-carbonyl)-1H-pyrrol-2-ylmethylene]-4-(2-fluoro-phenyl)-1,3-dihydro-indol-2-one] are 0.08 µM and above 20 µM.
